# Source: ChEMBL document CHEMBL4837239, “Identification of Thieno[3,2-d]pyrimidine Derivatives as Dual Inhibitors of Focal Adhesion Kinase and FMS-like Tyrosine Kinase 3” (J Med Chem, 2021)
# Legend:
# BaF3 [1] = experiment: Antiproliferative activity against mouse Ba/F3 cells harbouring FLT3 ITD F691I mutant assessed as growth inhibition measured after 72 hrs by CellTiter-Glo assay; assay type: functional; settings: Mus musculus, BaF3
# Focal adhesion kinase 1 = Focal adhesion kinase 1 (Homo sapiens, UniProt Q05397); experiment: Inhibition of recombinant FAK (unknown origin) by radiometric kinase assay
# Sequence of Focal adhesion kinase 1 (Q05397 whole entry): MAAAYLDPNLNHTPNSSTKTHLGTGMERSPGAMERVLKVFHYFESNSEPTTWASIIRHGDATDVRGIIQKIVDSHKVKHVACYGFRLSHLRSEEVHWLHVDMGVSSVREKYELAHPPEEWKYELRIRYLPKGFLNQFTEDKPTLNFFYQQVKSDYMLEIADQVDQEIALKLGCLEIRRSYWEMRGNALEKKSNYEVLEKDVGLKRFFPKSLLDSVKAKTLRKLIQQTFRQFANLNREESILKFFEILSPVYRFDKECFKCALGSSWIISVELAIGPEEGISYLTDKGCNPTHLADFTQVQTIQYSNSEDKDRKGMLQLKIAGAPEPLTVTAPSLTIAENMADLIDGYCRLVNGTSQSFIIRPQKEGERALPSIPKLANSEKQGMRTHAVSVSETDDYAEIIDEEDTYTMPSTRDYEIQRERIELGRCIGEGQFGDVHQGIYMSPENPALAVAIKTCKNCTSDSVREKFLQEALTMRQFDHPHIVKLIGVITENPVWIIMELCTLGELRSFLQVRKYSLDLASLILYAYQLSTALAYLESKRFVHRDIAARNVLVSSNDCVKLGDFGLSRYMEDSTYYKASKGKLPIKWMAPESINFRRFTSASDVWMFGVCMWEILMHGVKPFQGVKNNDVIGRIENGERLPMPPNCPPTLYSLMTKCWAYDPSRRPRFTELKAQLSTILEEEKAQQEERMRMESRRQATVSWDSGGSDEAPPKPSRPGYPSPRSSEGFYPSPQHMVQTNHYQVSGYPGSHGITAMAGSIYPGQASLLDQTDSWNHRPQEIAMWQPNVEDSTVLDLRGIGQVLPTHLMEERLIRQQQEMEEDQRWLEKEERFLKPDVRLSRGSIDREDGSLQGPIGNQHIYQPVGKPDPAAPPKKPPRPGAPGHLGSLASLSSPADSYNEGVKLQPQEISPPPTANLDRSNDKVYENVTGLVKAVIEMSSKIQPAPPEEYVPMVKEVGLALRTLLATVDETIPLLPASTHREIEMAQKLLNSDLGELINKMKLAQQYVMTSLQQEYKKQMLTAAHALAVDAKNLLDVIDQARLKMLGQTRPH
# BaF3 [2] = experiment: Antiproliferative activity against mouse Ba/F3 cells assessed as growth inhibition measured after 72 hrs by CellTiter-Glo assay; assay type: functional; settings: Mus musculus, BaF3
# [3] = Antiproliferative activity against human A375P cells assessed as growth inhibition measured after 72 hrs by CellTiter-Glo assay; assay type: functional
# BaF3 [4] = experiment: Antiproliferative activity against mouse Ba/F3 cells harbouring FLT3 ITD mutant assessed as growth inhibition measured after 72 hrs by CellTiter-Glo assay; assay type: functional; settings: Mus musculus, BaF3
# [5] = Metabolic stability in human liver microsomes assessed as compound remaining at 1 uM measured after 1 hr; assay type: ADME, Microsome; settings: read-out: Stabilty
# BaF3 [6] = experiment: Antiproliferative activity against mouse Ba/F3 cells harbouring FLT3 ITD D835Y mutant assessed as growth inhibition measured after 72 hrs by CellTiter-Glo assay; assay type: functional; settings: Mus musculus, BaF3
# BaF3 [7] = experiment: Antiproliferative activity against mouse Ba/F3 cells harbouring FLT3 D835Y mutant assessed as growth inhibition measured after 72 hrs by CellTiter-Glo assay; assay type: functional; settings: Mus musculus, BaF3
# HCT-116 = experiment: Antiproliferative activity against human HCT-116 cells assessed as growth inhibition measured after 72 hrs by CellTiter-Glo assay; assay type: functional
# BaF3 [8] = experiment: Antiproliferative activity against mouse Ba/F3 cells harbouring FLT3 ITD F691L mutant assessed as growth inhibition measured after 72 hrs by CellTiter-Glo assay; assay type: functional; settings: Mus musculus, BaF3
# [9] = Inhibition of FLT3 D835Y (unknown origin); design: species or system Homo sapiens
# MDA-MB-231 = experiment: Antiproliferative activity against human MDA-MB-231 cells assessed as growth inhibition measured after 72 hrs by CellTiter-Glo assay; assay type: functional
# CYP2C19 = CYP2C19 (Homo sapiens, UniProt P33261); experiment: Inhibition of CYP2C19 (unknown origin) at 10 uM relative to control; assay type: ADME
# Sequence of CYP2C19 (P33261 whole entry): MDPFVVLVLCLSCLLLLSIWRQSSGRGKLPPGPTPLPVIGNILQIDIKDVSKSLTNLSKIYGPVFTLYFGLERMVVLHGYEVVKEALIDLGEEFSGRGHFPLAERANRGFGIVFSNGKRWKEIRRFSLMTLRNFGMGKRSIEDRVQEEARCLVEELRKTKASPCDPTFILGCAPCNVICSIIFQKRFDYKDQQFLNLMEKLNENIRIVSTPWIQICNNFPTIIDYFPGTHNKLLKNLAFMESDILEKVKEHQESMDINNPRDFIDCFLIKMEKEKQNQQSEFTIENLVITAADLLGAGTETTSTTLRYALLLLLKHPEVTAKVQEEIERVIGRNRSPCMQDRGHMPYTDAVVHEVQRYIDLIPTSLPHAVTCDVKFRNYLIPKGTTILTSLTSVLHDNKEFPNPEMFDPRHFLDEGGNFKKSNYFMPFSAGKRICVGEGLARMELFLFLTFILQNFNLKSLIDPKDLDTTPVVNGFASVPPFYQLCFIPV
# CYP2C9 = CYP2C9 (Homo sapiens, UniProt P11712); experiment: Inhibition of CYP2C9 (unknown origin) at 10 uM relative to control; assay type: ADME
# Sequence of CYP2C9 (P11712 whole entry): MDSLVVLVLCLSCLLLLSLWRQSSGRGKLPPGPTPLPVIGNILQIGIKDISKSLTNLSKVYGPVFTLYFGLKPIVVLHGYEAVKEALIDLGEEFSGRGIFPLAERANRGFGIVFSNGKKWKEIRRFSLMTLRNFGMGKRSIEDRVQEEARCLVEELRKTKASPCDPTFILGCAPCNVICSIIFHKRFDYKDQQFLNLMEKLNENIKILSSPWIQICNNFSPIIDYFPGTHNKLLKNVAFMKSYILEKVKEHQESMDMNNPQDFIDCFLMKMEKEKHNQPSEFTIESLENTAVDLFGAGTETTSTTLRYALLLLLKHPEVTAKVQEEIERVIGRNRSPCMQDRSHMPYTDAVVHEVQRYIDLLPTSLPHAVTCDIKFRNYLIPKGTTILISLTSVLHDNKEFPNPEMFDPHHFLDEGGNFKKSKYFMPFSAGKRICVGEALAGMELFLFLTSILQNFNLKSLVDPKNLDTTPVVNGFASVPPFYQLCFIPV
# CYP1A2 = biological target: T1, CYP1A2 (Homo sapiens, UniProt P05177); experiment: Inhibition of CYP1A2 (unknown origin) at 10 uM relative to control; assay type: ADME
# T1 sequence (P05177 whole entry): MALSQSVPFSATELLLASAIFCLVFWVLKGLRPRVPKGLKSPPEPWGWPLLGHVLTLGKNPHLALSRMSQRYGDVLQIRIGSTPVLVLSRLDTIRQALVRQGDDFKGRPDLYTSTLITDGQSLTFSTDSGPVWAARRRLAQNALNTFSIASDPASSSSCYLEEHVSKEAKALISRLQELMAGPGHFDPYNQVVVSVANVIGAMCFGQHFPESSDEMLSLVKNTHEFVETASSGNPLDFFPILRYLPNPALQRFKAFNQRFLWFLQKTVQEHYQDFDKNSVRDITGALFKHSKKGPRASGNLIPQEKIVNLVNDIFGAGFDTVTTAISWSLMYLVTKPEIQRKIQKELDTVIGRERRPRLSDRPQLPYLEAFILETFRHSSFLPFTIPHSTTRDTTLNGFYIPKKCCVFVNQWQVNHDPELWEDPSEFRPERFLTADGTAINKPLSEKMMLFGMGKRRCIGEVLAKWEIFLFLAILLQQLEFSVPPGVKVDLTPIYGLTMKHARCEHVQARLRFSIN
# CYP3A4 = CYP3A4 (Homo sapiens, UniProt P08684); experiment: Inhibition of CYP3A4 (unknown origin) at 10 uM relative to control; assay type: ADME
# Sequence of CYP3A4 (P08684 whole entry): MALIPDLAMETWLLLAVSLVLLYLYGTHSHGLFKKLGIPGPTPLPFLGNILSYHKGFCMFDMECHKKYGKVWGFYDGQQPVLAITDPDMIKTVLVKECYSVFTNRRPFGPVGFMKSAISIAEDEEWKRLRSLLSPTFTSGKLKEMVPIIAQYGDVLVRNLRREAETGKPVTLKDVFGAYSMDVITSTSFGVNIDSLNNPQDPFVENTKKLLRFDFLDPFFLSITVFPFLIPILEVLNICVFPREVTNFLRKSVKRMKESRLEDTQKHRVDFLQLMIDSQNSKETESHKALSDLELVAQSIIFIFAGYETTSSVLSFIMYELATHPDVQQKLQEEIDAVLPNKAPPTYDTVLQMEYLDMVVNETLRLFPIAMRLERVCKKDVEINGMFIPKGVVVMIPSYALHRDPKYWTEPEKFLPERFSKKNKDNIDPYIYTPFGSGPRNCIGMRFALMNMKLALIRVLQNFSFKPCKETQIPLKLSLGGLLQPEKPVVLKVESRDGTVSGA
# CYP2D6 = CYP2D6 (Homo sapiens, UniProt P10635); experiment: Inhibition of CYP2D6 (unknown origin) at 10 uM relative to control; assay type: ADME
# Sequence of CYP2D6 (P10635 whole entry): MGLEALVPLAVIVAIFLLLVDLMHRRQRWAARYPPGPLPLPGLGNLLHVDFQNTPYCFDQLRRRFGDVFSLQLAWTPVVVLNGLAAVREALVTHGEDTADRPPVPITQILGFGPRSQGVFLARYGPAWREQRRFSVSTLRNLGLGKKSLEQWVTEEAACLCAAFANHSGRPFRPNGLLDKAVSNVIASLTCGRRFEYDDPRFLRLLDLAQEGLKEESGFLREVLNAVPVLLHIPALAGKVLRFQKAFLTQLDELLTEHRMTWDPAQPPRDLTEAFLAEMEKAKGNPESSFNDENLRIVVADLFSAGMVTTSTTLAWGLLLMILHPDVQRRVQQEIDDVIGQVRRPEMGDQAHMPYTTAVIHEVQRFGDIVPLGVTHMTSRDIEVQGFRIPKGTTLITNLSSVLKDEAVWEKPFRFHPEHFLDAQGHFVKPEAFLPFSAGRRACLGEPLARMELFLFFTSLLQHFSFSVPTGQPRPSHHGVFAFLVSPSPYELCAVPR
Structure (SMILES),IC50 (Focal adhesion kinase 1),"remaining at 1 h, 1 µM [5]","GI50 (HCT-116; Homo sapiens, HCT-116)","GI50 (MDA-MB-231; Homo sapiens, MDA-MB-231)","GI50 ([3]; Homo sapiens, A375P)",also measured
COc1cc(Nc2ncc3scc(-c4ccccn4)c3n2)cc(OC)c1OC,18 nM,,,,,
CNC(=O)c1ccccc1Nc1nc(Nc2ccc(N3CCOCC3)cc2OC)ncc1Cl,,,270 nM,1490 nM,1690 nM,inhibition at 10 µM (CYP2C19): 50.5%; inhibition at 10 µM (CYP2C9): 27%; inhibition at 10 µM (CYP1A2): 73.3%; inhibition at 10 µM (CYP3A4): 71.2%; inhibition at 10 µM (CYP2D6): 83.2%
COc1cc(Nc2ncc3scc(-c4cccc(S(C)(=O)=O)c4)c3n2)cc(OC)c1OC,91 nM,,,,,
COc1cc(Nc2ncc3scc(-c4ccccc4S(C)(=O)=O)c3n2)cc(OC)c1OC,668 nM,,,,,
CS(=O)(=O)Nc1cccc(-c2csc3cnc(N)nc23)c1,4030 nM,,,,,GI50 [3]: 43300 nM; GI50 (HCT-116): 33200 nM; GI50 (MDA-MB-231): 27800 nM
CNC(=O)c1ccc(Nc2ncc(C(F)(F)F)c(NCc3nccnc3N(C)S(C)(=O)=O)n2)cc1 [DEFACTINIB],,,9130 nM,11400 nM,5940 nM,
COc1cc(Nc2ncc3scc(-c4cccc(C(=O)O)c4)c3n2)cc(OC)c1OC,49 nM,,,,,
CS(=O)(=O)Nc1cccc(-c2csc3cnc(Nc4ccccc4)nc23)c1,30 nM,49.6%,,,,GI50 [3]: 7520 nM; GI50 (HCT-116): 2570 nM; GI50 (MDA-MB-231): 26900 nM
CS(=O)(=O)Nc1cccc(-c2csc3cnc(Nc4ccc(N5CCCCC5)cc4)nc23)c1,68 nM,58%,,,,GI50 [3]: 2780 nM; GI50 (HCT-116): 1490 nM; GI50 (MDA-MB-231): 3380 nM

# Second part, led by results:
IC50 (Focal adhesion kinase 1),"remaining at 1 h, 1 µM [5]","GI50 (HCT-116; Homo sapiens, HCT-116)","GI50 (MDA-MB-231; Homo sapiens, MDA-MB-231)",Structure (SMILES),"GI50 ([3]; Homo sapiens, A375P)",also measured
31 nM,68.9%,9130 nM,820 nM,CCN1CCN(c2ccc(Nc3ncc4scc(-c5cccnc5)c4n3)cc2)CC1,710 nM,GI50 (BaF3 [1]): 299 nM; GI50 (BaF3 [2]): 596 nM; GI50 (BaF3 [4]): 20 nM; GI50 (BaF3 [6]): 28.2 nM; GI50 (BaF3 [7]): 7.1 nM; GI50 (BaF3 [8]): 140 nM; IC50 [9]: < 0.5 nM
361 nM,,990 nM,1010 nM,CCN1CCN(c2ccc(Nc3ncc4scc(-c5ccccc5[N+](=O)[O-])c4n3)cc2)CC1,1500 nM,
13 nM,100%,420 nM,1420 nM,CCN1CCN(c2cccc(Nc3ncc4scc(-c5cccc(NS(C)(=O)=O)c5)c4n3)c2)CC1,900 nM,
21 nM,57.2%,190 nM,450 nM,CCN1CCN(c2ccc(Nc3ncc4scc(-c5cccc(N(C)S(C)(=O)=O)c5)c4n3)cc2)CC1,220 nM,GI50 (BaF3 [1]): 301 nM; GI50 (BaF3 [2]): 695 nM; GI50 (BaF3 [4]): 31.7 nM; GI50 (BaF3 [6]): 14.3 nM; GI50 (BaF3 [7]): 53 nM; GI50 (BaF3 [8]): 117 nM; IC50 [9]: < 0.5 nM
18 nM,55.5%,510 nM,520 nM,CCN1CCN(c2ccc(Nc3ncc4scc(-c5cccc(S(C)(=O)=O)c5)c4n3)cc2)CC1,640 nM,GI50 (BaF3 [1]): 245 nM; GI50 (BaF3 [2]): 427 nM; GI50 (BaF3 [4]): 20.6 nM; GI50 (BaF3 [6]): 25.2 nM; GI50 (BaF3 [7]): 8.7 nM; GI50 (BaF3 [8]): 170 nM; IC50 [9]: < 0.5 nM
12 nM,54.2%,270 nM,290 nM,CCN1CCN(c2ccc(Nc3ncc4scc(-c5ccccn5)c4n3)cc2)CC1,420 nM,GI50 (BaF3 [1]): 164 nM; GI50 (BaF3 [2]): 206 nM; GI50 (BaF3 [4]): 9.1 nM; GI50 (BaF3 [6]): 14.2 nM; GI50 (BaF3 [7]): 1.2 nM; GI50 (BaF3 [8]): 55 nM; IC50 [9]: < 0.5 nM
59 nM,,4350 nM,4640 nM,CCN1CCN(c2ccc(Nc3ncc4scc(-c5cccc(C(=O)O)c5)c4n3)cc2)CC1,12300 nM,
194 nM,,1880 nM,8820 nM,CCN1CCN(c2ccc(Nc3ncc4scc(-c5ccccc5S(C)(=O)=O)c4n3)cc2)CC1,4270 nM,
